# Measured values taken from patent publication US9133186B2, “Hetero ring-fused imidazole derivative having AMPK activating effect” (Shionogi & Co., Ltd., priority 2010, dated 2015).
# Molecular target: T1, human AMPK α1β1γ1 enzyme (Homo sapiens, UniProt Q13131+Q9Y478)
# T1 construct: purchased Carna Biosciences, Inc
# Assay: AMPK activator evaluation, Test Example 1 (mobility shift, FL-Peptide 7)
# Assay type: biochemical
# Settings: human AMPK α1β1γ1, control without compound = 100%; for Emax: read-out: Emax (maximum rate of increase in activity within the measurement range)
# Method: To a buffer solution consisting of a 50 mM HEPES-NaOH buffer solution (pH 7.0), 100 mM NaCl, 10 mM magnesium chloride, 0.1% bovine serum albumin, 0.2 mM sodium orthovanadate(V), 1 mM ethylene glycol-bis(2-aminoethyl ether)-N,N,N′,N′-tetraacetic acid (EGTA), 5 mM disodium (3-glycerophosphate and 2 mM dithiothreitol, a human AMPK α1β1γ1 enzyme (manufactured by Carna Biosciences, Inc.) was added in an amount to give a conversion rate of approximately 10% by reaction for 2 hours, and a compound dissolved in DMSO was added thereto so as to have a 1% DMSO concentration. The obtained liquid was left to stand for 10 minutes.
# To the liquid, a substrate solution consisting of a 50 mM HEPES-NaOH buffer solution (pH 7.0), 100 mM NaCl, 10 mM magnesium chloride, 0.1% bovine serum albumin, 0.2 mM sodium orthovanadate(V), 1 mM ethylene glycol-bis(2-aminoethyl ether)-N,N,N′,N′ tetraacetic acid (EGTA), 5 mM disodium β-glycerophosphate, 2 mM dithiothreitol, 0.4 mM ATP and 3 μM FL-Peptide 7 (manufactured by Caliper Life Sciences, Inc.) was added in equal amount (10 μl in total). The obtained liquid was allowed to react at 25° C. for 2 hours, and 10 μl of 20 mM EDTA was then added thereto to stop the reaction.
# To detect phosphorylated fluorescent substrates, the reaction liquid was applied to a measuring device, LabChip EZ Reader II manufactured by Caliper Life Science, Inc., for detecting fluorescence by using differences in mobility due to differences in charge. The setting conditions for the device were pressure, −1.5 PSI; upstream voltage, −2250 V; downstream voltage, −400 V; post sample buffer sip time, 40 seconds; final delay, 120 seconds; and peak order, Product First.
# T1 sequence (Q13131 10-559 limits assumed): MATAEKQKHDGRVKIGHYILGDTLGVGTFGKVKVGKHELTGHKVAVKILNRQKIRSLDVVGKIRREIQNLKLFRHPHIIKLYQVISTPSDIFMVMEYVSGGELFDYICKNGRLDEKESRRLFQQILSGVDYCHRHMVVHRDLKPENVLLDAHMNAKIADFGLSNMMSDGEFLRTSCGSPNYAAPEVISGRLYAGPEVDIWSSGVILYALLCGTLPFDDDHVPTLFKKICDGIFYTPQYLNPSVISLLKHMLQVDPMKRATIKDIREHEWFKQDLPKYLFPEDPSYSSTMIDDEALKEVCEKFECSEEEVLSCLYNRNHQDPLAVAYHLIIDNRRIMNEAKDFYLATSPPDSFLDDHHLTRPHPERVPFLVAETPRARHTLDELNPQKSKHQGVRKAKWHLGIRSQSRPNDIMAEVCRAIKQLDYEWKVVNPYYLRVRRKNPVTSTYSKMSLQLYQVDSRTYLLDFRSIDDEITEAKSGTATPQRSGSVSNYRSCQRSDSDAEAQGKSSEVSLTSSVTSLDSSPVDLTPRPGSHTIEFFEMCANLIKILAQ
# T1 sequence (Q9Y478 whole entry): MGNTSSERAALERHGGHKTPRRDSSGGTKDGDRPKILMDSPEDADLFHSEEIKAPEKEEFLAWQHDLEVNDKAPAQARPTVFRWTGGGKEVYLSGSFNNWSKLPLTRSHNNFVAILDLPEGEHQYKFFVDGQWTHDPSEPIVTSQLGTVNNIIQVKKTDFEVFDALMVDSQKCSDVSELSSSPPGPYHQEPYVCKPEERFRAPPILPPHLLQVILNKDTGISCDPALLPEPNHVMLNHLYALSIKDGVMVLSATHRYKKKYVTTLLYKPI
# T1 sequence (P54619 whole entry partner): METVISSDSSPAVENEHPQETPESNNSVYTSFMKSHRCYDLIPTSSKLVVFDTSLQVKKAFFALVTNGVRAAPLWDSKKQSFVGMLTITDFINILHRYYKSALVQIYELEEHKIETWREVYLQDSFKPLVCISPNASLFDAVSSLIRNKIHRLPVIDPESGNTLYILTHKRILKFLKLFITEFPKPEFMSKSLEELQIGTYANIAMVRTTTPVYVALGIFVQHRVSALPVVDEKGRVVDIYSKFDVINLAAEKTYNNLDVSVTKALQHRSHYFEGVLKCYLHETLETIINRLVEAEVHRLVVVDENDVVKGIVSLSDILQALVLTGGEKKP
Structure (SMILES),EC150 (compound concentration showing 150% relative to the control) [nM],Emax [%]
C#CC(C)Oc1nc2nc(-c3ccc(N4CCOCC4)cc3)c(Cl)cc2[nH]1 (stereo not drawn) [Compound B-2],3.6,399
Cc1ccc(Oc2nc3nc(N4CCCCC4)c(Cl)cc3[nH]2)cc1C(=O)O [Compound B-3],23,313
Cc1ccc(Oc2nc3cc(-c4ccc5c(ccn5C)c4)ccc3[nH]2)cc1C(=O)O [Compound B-5],4700,176
Cc1ccc(Oc2nc3nc(-c4ccc(N5CCOCC5)cc4)ncc3[nH]2)cc1C(=O)O [Compound B-7],5100,246
Cc1ccc(Oc2nc3nc(-c4ccccc4)c(Cl)cc3[nH]2)cc1C(=O)O [Compound B-10],280,290
Cc1ccc(Oc2nc3nc(-c4ccc(CO)cc4)c(Cl)cc3[nH]2)cc1C(=O)O [Compound B-13],76,311
Cc1ccc(Oc2nc3nc(-c4ccc(-c5ccccc5)cc4)c(Cl)cc3[nH]2)cc1C(=O)O [Compound B-22],13,339
Cc1ccc(-c2ccc(-c3nc4nc(Oc5ccc(C)c(C(=O)O)c5)[nH]c4cc3Cl)cc2)cc1 [Compound B-32],70,301
Cc1ccc(Oc2nc3nc(-c4cccc(O)c4)c(Cl)cc3[nH]2)cc1C(=O)O [Compound B-40],110,297
Cc1ccc(Oc2nc3nc(-c4ccc(N5CCOCC5)nc4)c(Cl)cc3[nH]2)cc1C(=O)O [Compound B-63],100,321
Cc1ccc(Oc2nc3cc(-c4ccc(N5CCOCC5)cc4)c(C)nc3[nH]2)cc1C(=O)O [Compound B-81],25,283
Clc1cc2[nH]c(Oc3ccccc3)nc2nc1-c1ccc(N2CCOCC2)cc1 [Compound B-104],190,267
CC(C)(C(=O)O)c1ccc(Oc2nc3nc(-c4ccc(N5CCOCC5)cc4)c(Cl)cc3[nH]2)cc1 [Compound B-107],250,249
O=C(O)/C=C/c1cccc(Oc2nc3nc(-c4ccc(N5CCOCC5)cc4)c(Cl)cc3[nH]2)c1 [Compound B-109],140,315
O=C(O)COc1ccc(Oc2nc3nc(-c4ccc(N5CCOCC5)cc4)c(Cl)cc3[nH]2)cc1 [Compound B-110],160,288
NC(=O)c1cccc2ccc(Oc3nc4nc(-c5ccc(N6CCOCC6)cc5)c(Cl)cc4[nH]3)cc12 [Compound B-113],13,316
NCc1ccc(Oc2nc3nc(-c4ccc(N5CCOCC5)cc4)c(Cl)cc3[nH]2)cc1 [Compound B-117],370,243
Cc1ccc(Oc2nc3nc(-c4ccc(N5CCOCC5)cc4)c(Cl)cc3[nH]2)cc1 [Compound B-121],97,278
O=C(O)c1cncc(Oc2nc3nc(-c4ccc(N5CCOCC5)cc4)c(Cl)cc3[nH]2)c1 [Compound B-126],180,262
OCc1ccc(Oc2nc3nc(-c4ccc(N5CCOCC5)cc4)c(Cl)cc3[nH]2)cc1 [Compound B-131],44,298
NS(=O)(=O)c1ccc(Oc2nc3nc(-c4ccc(N5CCOCC5)cc4)c(Cl)cc3[nH]2)cc1 [Compound B-133],360,234
